Reference: patent US7192746B2, “α-Isomaltosyltransferase, process for producing the same and use thereof” (Kabushiki Kaisha Hayashibara Seibutsu Kagaku Kenkyujo, priority 2000, dated 2007)

Key:
Assay type in all cases: biochemical
[1] = system: α-isomaltosyl-transferring enzyme from Bacillus globisporus C11; assay: Influence of metal ions on enzyme activity; conditions: enzyme of Strain C11; for Relative activity: 1 mM metal ion
Protocol: (§1) The activity of the enzyme was assayed by dissolving panose in 100 mM acetate buffer (pH 6.0) to give a concentration of two percent (w/v) for a substrate solution, adding a 0.5 ml of an enzyme solution to a 0.5 ml of the substrate solution, enzymatically reacting the mixture solution at 35° C. for 30 min, suspending the reaction mixture by boiling for 10 min, and quantifying glucose by the glucose oxidation method. One unit activity of the α-isomaltosyl-transferring enzyme is defined as the enzyme amount that forms one micromole of glucose per minute under the above enzymatic reaction conditions. Throughout the specification, the enzymatic activity of the α-isomaltosyl-transferring enzyme means the unit(s) assayed as above.
(§2) The influence of metal ions on the activity of α-isomaltosyl-transferring enzyme was examined in the presence of 1 mM of a metal ion according to the assay for the enzyme activity.

[2] = system: α-isomaltosyl-transferring enzyme from Arthrobacter ramosus S1; assay: Influence of metal ions on enzyme activity; conditions: enzyme of Strain S1; for Relative activity: 1 mM metal ion
Protocol: as §1, §2

[3] = system: α-isomaltosyl-transferring enzyme from Bacillus globisporus N75; conditions: enzyme of Strain N75; for Relative activity: 1 mM metal ion
Protocol: as §1, §2

[4] = system: α-isomaltosyl-transferring enzyme from Bacillus globisporus C9; assay: Influence of metal ions on enzyme activity; conditions: enzyme of Strain C9; for Relative activity: 1 mM metal ion
Protocol: as §1
The influence of metal ions on the activity of α-isomaltosyl-transferring enzyme was examined in the presence of 1 mM of each metal-ion according to the assay for the enzyme activity.

[5] = system: α-isomaltosyl-transferring enzyme from Bacillus globisporus C11; assay: Formation of reducing power from high molecular glucans; conditions: Enzyme of Strain C11
Protocol: (§3) In the above experiment, no detectable amount of a lower molecular weight saccharide such as cyclotetrasaccharide detectable on TLC was formed from soluble starch, pullulan and dextran as high molecular glucans. The following test was carried out to confirm that the α-isomaltosyl-transferring enzyme of the present invention neither increase the reducing power of the above high molecular glucans nor hydrolyze them. To a solution of soluble starch, pullulan or dextran was added 12 units/g substrate of a purified specimen of α-isomaltosyl-transferring enzyme from either Bacillus globisporus C9 obtained by the method in Experiment 4, Bacillus globisporus C11 obtained by the method in Experiment 7, Bacillus globisporus N75 obtained by the method in Experiment 11, or Arthrobacter ramosus S1 obtained by the method in Experiment 15. […] The reducing saccharide contents and the total sugar contents in the resulting reaction mixtures after the enzymatic reactions were respectively quantified by the Somogyi-Nelson's method and the anthrone-sulfuric acid reaction method. The percentage of forming reducing power was calculated by the following equation, and the results are in Table 13:
(§4) [formula] [formula] AR: Reducing sugar content after enzymatic reaction. AT: Total sugar content after enzymatic reaction. BR: Reducing sugar content before enzymatic reaction. BT: Total sugar content before enzymatic reaction.

[6] = system: α-isomaltosyl-transferring enzyme from Bacillus globisporus C9; assay: as above; conditions: Enzyme of Strain C9
Protocol: as §3, §4

[7] = system: α-isomaltosyl-transferring enzyme from Bacillus globisporus N75; assay: as above; conditions: Enzyme of Strain N75
Protocol: (§5) In the above experiment, no detectable amount of a lower molecular weight saccharide such as cyclotetrasaccharide detectable on TLC was formed from soluble starch, pullulan and dextran as high molecular glucans. The following test was carried out to confirm that the α-isomaltosyl-transferring enzyme of the present invention neither increase the reducing power of the above high molecular glucans nor hydrolyze them. To a solution of soluble starch, pullulan or dextran was added 12 units/g substrate of a purified specimen of α-isomaltosyl-transferring enzyme from either Bacillus globisporus C9 obtained by the method in Experiment 4, Bacillus globisporus C11 obtained by the method in Experiment 7, Bacillus globisporus N75 obtained by the method in Experiment 11, or Arthrobacter ramosus S1 obtained by the method in Experiment 15. The resulting each solution was adjusted to give a substrate concentration of one percent (w/v) and incubated at 35° C. and pH 6.0 for four hours. The reducing saccharide contents and the total sugar contents in the resulting reaction mixtures after the enzymatic reactions were respectively quantified by the Somogyi-Nelson's method and the anthrone-sulfuric acid reaction method. The percentage of forming reducing power was calculated by the following equation, and the results are in Table 13:
as §4

[8] = system: α-isomaltosyl-transferring enzyme from Arthrobacter ramosus S1; assay: as above; conditions: printed Enzyme of Strain N75 a second time
Protocol: as §5, §4

[9] = system: α-isomaltosyl-transferring enzyme from Bacillus globisporus N75; assay: Action on saccharides (substrates, TLC); set-up: key: −: there was found no substrate change before and after the enzymatic reaction; +: there were found both the reduction of substrate and the formation of cyclotetrasaccharide after the enzymatic reaction; conditions: 2 units/g substrate, 2% (w/v) substrate, 30° C., pH 6.0, 24 hours
Method in brief: (§6)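 Purified enzyme (partially purified for A. globiformis A19) at 2 units/g substrate acted on each saccharide at 2% (w/v), pH 6.0, 30° C., 24 h. Pre- and post-reaction mixtures ran on silica gel TLC in n-butanol/pyridine/water (6:4:1). Total sugars were stained by sulfuric acid-methanol and reducing sugars by diphenylamine-aniline.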

[10] = system: α-isomaltosyl-transferring enzyme from Arthrobacter globiformis A19; assay: Action on saccharides (substrates, TLC); set-up: key: −: there was found no substrate change before and after the enzymatic reaction; +: there were found both the reduction of substrate and the formation of cyclotetrasaccharide after the enzymatic reaction; conditions: partially purified enzyme, 2 units/g substrate, 2% (w/v) substrate, 30° C., pH 6.0, 24 hours
Method in brief: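 Substrates 2% (w/v), enzyme 2 units/g substrate, pH 6.0, 30° C., 24 h. Read-out: silica TLC, n-butanol:pyridine:water 6:4:1; sulfuric acid-methanol (total sugar) and diphenylamine-aniline (reducing sugar) staining, pre- vs post-reaction.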

[11] = system: α-isomaltosyl-transferring enzyme from Bacillus globisporus C11; assay: Action on saccharides (substrates, TLC); set-up: key: −: there was found no substrate change before and after the enzymatic reaction; +: there were found both the reduction of substrate and the formation of cyclotetrasaccharide after the enzymatic reaction; conditions: 2 units/g substrate, 2% (w/v) substrate, 30° C., pH 6.0, 24 hours
Method in brief: as §6

[12] = system: α-isomaltosyl-transferring enzyme from Arthrobacter ramosus S1; assay: Action on saccharides (substrates, TLC); set-up: key: −: there was found no substrate change before and after the enzymatic reaction; +: there were found both the reduction of substrate and the formation of cyclotetrasaccharide after the enzymatic reaction; conditions: 2 units/g substrate, 2% (w/v) substrate, 30° C., pH 6.0, 24 hours
Method in brief: as §6

[13] = system: α-isomaltosyl-transferring enzyme from Bacillus globisporus C9; assay: Action on saccharides (substrates, TLC); set-up: key: −: there was found no substrate change before and after the enzymatic reaction; +: there were found both the reduction of substrate and the formation of cyclotetrasaccharide after the enzymatic reaction; conditions: 2 units/g substrate, 2% (w/v) substrate, 30° C., pH 6.0, 24 hours
Method in brief: as §6

[14] = 0 hr, 12 units/g substrate, 1% (w/v), 35° C., pH 6.0

[Hg+2] [Hg^2+]
Relative activity [1]: 2%
Effect on enzyme activity ([1]; 1 mM): greatly inhibited
Relative activity [2]: 0.1%
Effect on enzyme activity ([2]; 1 mM): greatly inhibited
Relative activity [3]: 0.5%
Effect on enzyme activity ([3]; 1 mM): greatly inhibited
Relative activity [4]: 1%
Effect on enzyme activity ([4]; 1 mM): greatly inhibited

[Ni+2] [Ni^2+]
Relative activity [1]: 89%
Relative activity [2]: 87%
Relative activity [3]: 91%
Relative activity [4]: 102%

[Pb+2] [Pb^2+]
Relative activity [1]: 74%
Relative activity [2]: 85%
Relative activity [3]: 69%
Relative activity [4]: 89%

[Sr+2] [Sr^2+]
Relative activity [1]: 93%
Relative activity [2]: 101%
Relative activity [3]: 91%
Relative activity [4]: 101%

[Zn+2] [Zn^2+]
Relative activity [1]: 83%
Relative activity [2]: 78%
Relative activity [3]: 75%
Relative activity [4]: 88%

dextran
Percentage of forming reducing power [5, 14]: 0.0%
Percentage of forming reducing power ([5]; 1 hr): 0.0%
Percentage of forming reducing power ([5]; 2 hr): 0.0%
Percentage of forming reducing power ([5]; 3 hr): 0.0%
Percentage of forming reducing power ([5]; 4 hr): 0.0%
Percentage of forming reducing power [6, 14]: 0.0%
Percentage of forming reducing power ([6]; 1 hr): 0.0%
Percentage of forming reducing power ([6]; 2 hr): 0.0%
Percentage of forming reducing power ([6]; 3 hr): 0.1%
Percentage of forming reducing power ([6]; 4 hr): 0.0%
Percentage of forming reducing power [7, 14]: 0.0%
Percentage of forming reducing power ([7]; 1 hr): 0.0%
Percentage of forming reducing power ([7]; 2 hr): 0.0%
Percentage of forming reducing power ([7]; 3 hr): 0.0%
Percentage of forming reducing power ([7]; 4 hr): 0.0%
Percentage of forming reducing power [8, 14]: 0.0%
Percentage of forming reducing power ([8]; 1 hr): 0.0%
Percentage of forming reducing power ([8]; 2 hr): 0.0%
Percentage of forming reducing power ([8]; 3 hr): 0.0%
Percentage of forming reducing power ([8]; 4 hr): 0.0%
Enzymatic action for forming cyclotetrasaccharide, Enzyme of Strain N75 [9]: −
Enzymatic action for forming cyclotetrasaccharide, Enzyme of Strain A19 [10]: −
Enzymatic action for forming cyclotetrasaccharide, Enzyme of Strain C11 [11]: −
Enzymatic action for forming cyclotetrasaccharide, Enzyme of Strain S1 [12]: −
Enzymatic action for forming cyclotetrasaccharide, Enzyme of Strain C9 [13]: −

pullulan
Percentage of forming reducing power [5, 14]: 0.0%
Percentage of forming reducing power ([5]; 1 hr): 0.0%
Percentage of forming reducing power ([5]; 2 hr): 0.0%
Percentage of forming reducing power ([5]; 3 hr): 0.0%
Percentage of forming reducing power ([5]; 4 hr): 0.0%
Percentage of forming reducing power [6, 14]: 0.0%
Percentage of forming reducing power ([6]; 1 hr): 0.0%
Percentage of forming reducing power ([6]; 2 hr): 0.0%
Percentage of forming reducing power ([6]; 3 hr): 0.0%
Percentage of forming reducing power ([6]; 4 hr): 0.0%
Percentage of forming reducing power [7, 14]: 0.0%
Percentage of forming reducing power ([7]; 1 hr): 0.0%
Percentage of forming reducing power ([7]; 2 hr): 0.0%
Percentage of forming reducing power ([7]; 3 hr): 0.0%
Percentage of forming reducing power ([7]; 4 hr): 0.0%
Percentage of forming reducing power [8, 14]: 0.0%
Percentage of forming reducing power ([8]; 1 hr): 0.0%
Percentage of forming reducing power ([8]; 2 hr): 0.0%
Percentage of forming reducing power ([8]; 3 hr): 0.0%
Percentage of forming reducing power ([8]; 4 hr): 0.0%
Enzymatic action for forming cyclotetrasaccharide, Enzyme of Strain N75 [9]: −
Enzymatic action for forming cyclotetrasaccharide, Enzyme of Strain A19 [10]: −
Enzymatic action for forming cyclotetrasaccharide, Enzyme of Strain C11 [11]: −
Enzymatic action for forming cyclotetrasaccharide, Enzyme of Strain S1 [12]: −
Enzymatic action for forming cyclotetrasaccharide, Enzyme of Strain C9 [13]: −

soluble starch
Percentage of forming reducing power [5, 14]: 0.0%
Percentage of forming reducing power ([5]; 1 hr): 0.1%
Percentage of forming reducing power ([5]; 2 hr): 0.0%
Percentage of forming reducing power ([5]; 3 hr): 0.0%
Percentage of forming reducing power ([5]; 4 hr): 0.0%
Percentage of forming reducing power [6, 14]: 0.0%
Percentage of forming reducing power ([6]; 1 hr): 0.0%
Percentage of forming reducing power ([6]; 2 hr): 0.0%
Percentage of forming reducing power ([6]; 3 hr): 0.0%
Percentage of forming reducing power ([6]; 4 hr): 0.0%
Percentage of forming reducing power [7, 14]: 0.0%
Percentage of forming reducing power ([7]; 1 hr): 0.0%
Percentage of forming reducing power ([7]; 2 hr): 0.0%
Percentage of forming reducing power ([7]; 3 hr): 0.0%
Percentage of forming reducing power ([7]; 4 hr): 0.0%
Percentage of forming reducing power [8, 14]: 0.0%
Percentage of forming reducing power ([8]; 1 hr): 0.0%
Percentage of forming reducing power ([8]; 2 hr): 0.0%
Percentage of forming reducing power ([8]; 3 hr): 0.0%
Percentage of forming reducing power ([8]; 4 hr): 0.0%
Enzymatic action for forming cyclotetrasaccharide, Enzyme of Strain N75 [9]: −
Enzymatic action for forming cyclotetrasaccharide, Enzyme of Strain A19 [10]: −
Enzymatic action for forming cyclotetrasaccharide, Enzyme of Strain C11 [11]: −
Enzymatic action for forming cyclotetrasaccharide, Enzyme of Strain S1 [12]: −
Enzymatic action for forming cyclotetrasaccharide, Enzyme of Strain C9 [13]: −
